One assay deals with Aβ42. Briefly: Aβ42 release from HEK cells stably expressing APPswe (MSD electrochemiluminescence). It is filed as cell-based, Human. To be noted: Homo sapiens, HEK293, HEK cells expressing APPswe; 4-6 h incubation with test compound; Aβ42 secreted to cell medium. As for the experimental part:
The level of activity of the compounds on Aβ formation was tested using the following method:
Compounds were diluted in 100% DMSO and stored at […] prior to use. Human Embryonic Kidney (HEK) cell line stably expressing APP with the Swedish mutation (APPswe) were cultured using Dulbecco's Modified Eagles medium (DMEM) supplied with […] glucose, Na-pyruvate and GlutaMAX with 10% FBS, 100 U/ml penicillin-streptomycin (PEST) respectively, 1× non-essential amino acids (NEAA), […] Hepes, 100 μg/ml Zeocine. Cells at about 80% confluence were washed with PBS, detached from culture flasks using 1× Trypsin/EDTA diluted in PBS, re-suspended in cell media and plated in 384-well poly-d-lysine coated cell culture plates at about 10000-15000 cells/well, in 25 μL cell media. Optionally, cryo-preserved cells (frozen and stored at −140° C. in 90% cell media and 10% DMSO) were thawed, washed and plated as above. Next the cells were incubated for 15-24 h at 37° C. and 5% CO2, after which cell medium was changed. Fresh medium containing test compound diluted ×200 from prepared compound plate was added to the cells before further incubation for 4-6 hours at 37° C. and 5% CO2. After incubation with test compound the amount of Aβ peptides, including Aβ42, Aβ40, Aβ39, Aβ38 and Aβ37, as well as total Aβ levels, secreted to cell medium was analyzed using the electrochemiluminescence assay technology from Meso Scale Discovery (MSD), in combination with specific antibodies raised against the different Aβ peptides. Aβ42, Aβ40 and Aβ38 antibodies were purchased from MSD and Aβ37 and Aβ39 were made in house. Total Aβ was measured using a combination of 6E10 and 4G8 anti Aβ antibodies from MSD. Potential cytotoxic effects of the compounds were usually assayed by measuring the ATP content (ViaLight) from cell lysate.

For the next assay, the system named is Notch. Briefly: Release and translocation of Notch intracellular domain into the nucleus, HEK/AENotch cells (NICD immunostaining, ImageXpress). It is filed as cell-based, Human. To be noted: Homo sapiens, 3 μM Lactacystin, 4-6 h incubation, nucleus/cytosol NICD fluorescence ratio. Here is the method:
The level of activity of the compounds on release and translocation of Notch intracellular domain into the cell nucleus was tested using the following method:
Compounds were diluted in 100% DMSO and stored at […] prior to use. Human Embryonic Kidney cell line overexpressing Notchl-E-human-myc construct (referred to as HEK/AENotch) were cultured in T75 cm^2 or T225 cm^2 cell culture flasks using Dulbecco's Modified Eagles medium (DMEM) supplemented with […] glucose, Na-pyruvate and GlutaMAX with 10% FBS, 100 U/ml penicillin-streptomycin (PEST) respectively, 1× non-essential amino acids (NEAA), […] Hepes and 100 μg/ml Hygromycin. Cells at about 80% confluence were washed with PBS, detached from the flask bottom using 1× Trypsin/EDTA diluted in PBS, re-suspended in cell media and plated in 384-well plates at about 10000 cells/well, in 25 μL cell media. Optionally, cryo-preserved cells (frozen and stored at −140° C. in 90% cell media and 10% DMSO) were thawed, washed and plated as above. Next the cells were incubated for 15-24 h at 37° C. and 5% CO2, after which cell medium was replaced with fresh medium containing 3 μM Lactacystin and test compound diluted ×200 from prepared compound plate giving 0.5% final DMSO concentration, and the highest compound concentration typically 25 μM. Cells were then incubated 4-6 h with test compound before being fixed, washed and immunostained with NICD antibody (rabbit Notch 1 (C-20)). Image acquisition of cytosolic/membrane and nuclear fluorescence as well as subsequent analysis of the nucleus and cytosolic fluorescence ratio was carried out using ImageXpress. Potential cytotoxic effects of the compounds were usually assayed by analysis of nucleus area or cell number.

Results on 20 compounds are retold here after patent US20120122843A1, “Compounds and Their Use for Treatment of Amyloid Beta-Related Diseases” (ASTRAZENECA AB, priority 2010, published 2012).

Consider `COc1nc(Nc2cc(C)c3c(n2)OC(CC(F)(F)F)CN(C)C3)ccc1-c1cnn(C)c1` (stereo not shown) [Example 2, N-(6-Methoxy-5-(1-methyl-1H-pyrazol-4-yl)pyridin-2-yl)-4,6-dimethyl-2-(2,2,2-trifluoroethyl)-2,3,4,5-tetrahydropyrido[3,2-f][1,4]oxazepin-8-amine], for which the results for the IC50 in the assay on Aβ42 and in the assay on Notch were 0.023 µM and 1.14 µM, respectively.

On to `COc1nc(Nc2ccc3c(n2)OC(CC(F)(F)F)CN(C)C3)ccc1-c1cnn(C)c1` (stereo not shown) [Example 3, N-(6-Methoxy-5-(1-methyl-1H-pyrazol-4-yl)pyridin-2-yl)-4-methyl-2-(2,2,2-trifluoroethyl)-2,3,4,5-tetrahydropyrido[3,2-f][1,4]oxazepin-8-amine], for which the IC50 with Aβ42 was 0.017 µM; in the assay with Notch, above 25 µM.

In the case of `COc1nc(Nc2ccc3c(n2)OC(CC(F)(F)F)CN(C)C3)ccc1-n1cnc(C)c1` (stereo not shown) [Example 6, N-(6-Methoxy-5-(4-methyl-1H-imidazol-1-yl)pyridin-2-yl)-4-methyl-2-(2,2,2-trifluoroethyl)-2,3,4,5-tetrahydropyrido[3,2-f][1,4]oxazepin-8-amine], the half-maximal inhibitory concentration (IC50) in the assay on Aβ42 was 0.018 µM; with Notch it was above 7.9 µM.

Consider `COc1nc(Nc2ccc3c(n2)OC(CC(F)(F)F)CN(C)C3)ccc1-c1cc(C)ncn1` (stereo not shown) [Example 7, [6-Methoxy-5-(6-methyl-pyrimidin-4-yl)-pyridin-2-yl]-[6-methyl-8-(2,2,2-trifluoro-ethyl)-5,6,7,8-tetrahydro-9-oxa-1,6-diaza-benzocyclohepten-2-yl]-amine], for which the IC50 in the assay on Aβ42 is 0.135 µM; with Notch it was above 25 µM.

On to `COc1nc(Nc2ccc3c(n2)OC(CC(F)(F)F)CN(C)C3)ccc1-c1ccnc(C)c1` (stereo not shown) [Example 8, (2-Methoxy-2′-methyl-[3,4′]bipyridinyl-6-yl)-[6-methyl-8-(2,2,2-trifluoro-ethyl)-5,6,7,8-tetrahydro-9-oxa-1,6-diaza-benzocyclohepten-2-yl]-amine], for which the half-inhibitory concentration (IC50) with Aβ42 stood at 0.005 µM; in the assay with Notch, 3.25 µM.

As for `COc1nc(Nc2ccc3c(n2)OC(c2nc(C)cs2)CN(C)C3)ccc1-c1cnn(C)c1` (stereo not shown) [Example 9, N-(6-Methoxy-5-(1-methyl-1H-pyrazol-4-yl)pyridin-2-yl)-4-methyl-2-(4-methylthiazol-2-yl)-2,3,4,5-tetrahydropyrido[3,2-f][1,4]oxazepin-8-amine], the IC50 is 0.019 µM in the assay on Aβ42 and above 15.8 µM in the assay on Notch.

As to `COc1nc(Nc2cc(C)c3c(n2)OC(C2CC2)CN(C)C3)ccc1-c1cnn(C)c1` (stereo not shown) [Example 13, 2-Cyclopropyl-N-(6-methoxy-5-(1-methyl-1H-pyrazol-4-yl)pyridin-2-yl)-4,6-dimethyl-2,3,4,5-tetrahydropyrido[3,2-f][1,4]oxazepin-8-amine], the concentration for half-maximal inhibition (IC50) in the assay on Aβ42 was 0.048 µM; in the assay with Notch it was above 5 µM.

In the case of `Cc1cn(-c2ccc(Nc3ccc4c(n3)O[C@H](c3ccccc3)CN(C)C4)nc2)cn1` [Example 14, (R)-4-Methyl-N-(5-(4-methyl-1H-imidazol-1-yl)pyridin-2-yl)-2-phenyl-2,3,4,5-tetrahydropyrido[3,2-f][1,4]oxazepin-8-amine], the figures for the IC50 in the assay with Aβ42 and with Notch were 0.024 µM and above 50 µM, respectively.

Regarding `Cc1ncn(-c2ccc(Nc3ccc4c(n3)OC(c3cccc(Cl)c3)CN(C)C4)nc2)n1` (stereo not shown) [Example 23, 2-(3-Chlorophenyl)-4-methyl-N-(5-(3-methyl-1H-1,2,4-triazol-1-yl)pyridin-2-yl)-2,3,4,5-tetrahydropyrido[3,2-f][1,4]oxazepin-8-amine], the IC50 with Aβ42 is 0.055 µM; in the assay on Notch, above 2.5 µM.

With `Cc1ncn(-c2ccc(Nc3ccc4c(n3)OC(c3ccc(Cl)cc3)CN(C)C4)nc2)n1` (stereo not shown) [Example 24, 2-(4-Chlorophenyl)-4-methyl-N-(5-(3-methyl-1H-1,2,4-triazol-1-yl)pyridin-2-yl)-2,3,4,5-tetrahydropyrido[3,2-f][1,4]oxazepin-8-amine], the half-inhibitory concentration (IC50) is 0.081 µM in the assay with Aβ42 and above 7.9 µM in the assay on Notch.

On to `COc1nc(Nc2ccc3c(n2)OC(c2ncc(C)s2)CN(C)C3)ccc1-c1cnn(C)c1` (stereo not shown) [Example 39, N-(6-Methoxy-5-(1-methyl-1H-pyrazol-4-yl)pyridin-2-yl)-4-methyl-2-(5-methylthiazol-2-yl)-2,3,4,5-tetrahydropyrido[3,2-f][1,4]oxazepin-8-amine], for which the half-maximal inhibitory concentration (IC50) in the assay on Aβ42 is 0.028 µM; in the assay with Notch it was above 25 µM.

In the case of `COc1nc(Nc2ccc3c(n2)OC(c2ncc(C)s2)CN(C)C3)ccc1-n1cnc(C)c1` (stereo not shown) [Example 40, N-(6-Methoxy-5-(4-methyl-1H-imidazol-1-yl)pyridin-2-yl)-4-methyl-2-(5-methylthiazol-2-yl)-2,3,4,5-tetrahydropyrido[3,2-f][1,4]oxazepin-8-amine], the values for the IC50 in the assay with Aβ42 and in the assay on Notch were 0.009 µM and 3.64 µM, respectively.

As for `COc1nc(Nc2ccc3c(n2)OC(c2ccc(C)cn2)CN(C)C3)ccc1-c1cnn(C)c1` (stereo not shown) [Example 41, N-(6-Methoxy-5-(1-methyl-1H-pyrazol-4-yl)pyridin-2-yl)-4-methyl-2-(5-methylpyridin-2-yl)-2,3,4,5-tetrahydropyrido[3,2-f][1,4]oxazepin-8-amine], the IC50 with Aβ42 is 0.06 µM; with Notch, above 25 µM.

Consider `COc1nc(Nc2ccc3c(n2)OC(c2cc(C)ccn2)CN(C)C3)ccc1-c1cnn(C)c1` (stereo not shown) [Example 42, N-(6-Methoxy-5-(1-methyl-1H-pyrazol-4-yl)pyridin-2-yl)-4-methyl-2-(4-methylpyridin-2-yl)-2,3,4,5-tetrahydropyrido[3,2-f][1,4]oxazepin-8-amine], for which the values for the concentration for half-maximal inhibition (IC50) in the assay with Aβ42 and in the assay with Notch were 0.046 µM and above 25 µM, respectively.

With `COc1nc(Nc2ccc3c(n2)OC(CC(F)(F)F)CN(C)C3)ccc1-c1ccnc(C)n1` (stereo not shown) [Example 46, N-[6-Methoxy-5-(2-methylpyrimidin-4-yl)-2-pyridyl]-4-methyl-2-(2,2,2-trifluoroethyl)-3,5-dihydro-2H-pyrido[3,2-f][1,4]oxazepin-8-amine], the results for the IC50 in the assay on Aβ42 and with Notch were 0.033 µM and above 25 µM, respectively.

Regarding `COc1nc(Nc2ccc3c(n2)OC(CC(F)(F)F)CN(C)C3)ccc1-c1cnc(C)o1` (stereo not shown) [Example 47, N-[6-Methoxy-5-(2-methyloxazol-5-yl)-2-pyridyl]-4-methyl-2-(2,2,2-trifluoroethyl)-3,5-dihydro-2H-pyrido[3,2-f][1,4]oxazepin-8-amine], the values for the half-inhibitory concentration (IC50) in the assay with Aβ42 and in the assay on Notch were 0.004 µM and above 25 µM, respectively.

With `Cc1cn(-c2ccc(Nc3ccc4c(n3)OC(CC(F)(F)F)CN(C)C4)nc2C#N)cn1` (stereo not shown) [Example 48], the values for the IC50 with Aβ42 and in the assay on Notch were 0.061 µM and above 25 µM, respectively.

As to `COc1nc(Nc2ccc3c(n2)O[C@H](c2nc(C)cs2)CN(C)C3)c(F)cc1-c1cnn(C)c1` [Example 54, (2S)—N-[3-Fluoro-6-methoxy-5-(1-methylpyrazol-4-yl)-2-pyridyl]-4-methyl-2-(4-methylthiazol-2-yl)-3,5-dihydro-2H-pyrido[3,2-f][1,4]oxazepin-8-amine], the half-inhibitory concentration (IC50) with Aβ42 amounted to 0.018 µM; in the assay on Notch it was 6.49 µM.

With `Cc1cn(-c2ccc(Nc3ccc4c(n3)O[C@H](c3nc(C)cs3)CN(C)C4)nc2C#N)cn1` [Example 55, 3-(4-Methylimidazol-1-yl)-6-[[(2S)-4-methyl-2-(4-methylthiazol-2-yl)-3,5-dihydro-2H-pyrido[3,2-f][1,4]oxazepin-8-yl]amino]pyridine-2-carbonitrile], the IC50 was 0.044 µM in the assay on Aβ42 and above 25 µM in the assay on Notch.

`COc1nc(Nc2ccc3c(n2)O[C@H](c2ccccc2)CN(C)C3)ccc1-c1cn[nH]c1` [Example 56, (2R)—N-[6-Methoxy-5-(1H-pyrazol-4-yl)-2-pyridyl]-4-methyl-2-phenyl-3,5-dihydro-2H-pyrido[3,2-f][1,4]oxazepin-8-amine]: the figures for the IC50 in the assay with Aβ42 and in the assay on Notch were 0.098 µM and above 25 µM, respectively.
